From paper PMC9848300, “Discovery of novel enasidenib analogues targeting inhibition of mutant isocitrate dehydrogenase 2 as antileukaemic agents” (Journal of Enzyme Inhibition and Medicinal Chemistry, 2023)

Tests used:
SN 12C = assay: NCI 60 antitumor screening (single dose / five doses); type: cell-based; details: Homo sapiens, SN12C, read-out: Growth inhibition percentage (GI %)
MDA-MB-435 = assay: as above; type: cell-based; details: Homo sapiens, MDA-MB-435, read-out: Growth inhibition percentage (GI %)
LOX IMVI = assay: as above; type: cell-based; details: Homo sapiens, LOX IMVI, read-out: Growth inhibition percentage (GI %)
MCF7 = assay: NCI 60 antitumor screening (single dose); type: cell-based; details: Homo sapiens; MCF7 (breast cancer), single dose 10 μM; read-out: Growth inhibition percentage (GI %)
Method in brief: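 At one concentration (10 μM), compounds are run in triplicate on 60 human cancer lines per the NCI method. Treated-cell growth is recorded as G%. Reported inhibition equals 100 − G%.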

SF-268 = assay: NCI 60 antitumor screening (single dose); type: cell-based; details: Homo sapiens; SF-268 (CNS cancer), single dose 10 μM; read-out: Growth inhibition percentage (GI %)
Method in brief: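 Assessment used the first tier of the NCI 60 screen, one dose of 10 μM per compound. Triplicate experiments gave percent growth of treated cells. Inhibition was then derived as 100 − G%.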

A498 = assay: NCI 60 antitumor screening (single dose / five doses); type: cell-based; details: Homo sapiens, A498, read-out: Growth inhibition percentage (GI %)
SF-539 = assay: as above; type: cell-based; details: Homo sapiens, SF-539, read-out: Growth inhibition percentage (GI %)
BT-549 = assay: as above; type: cell-based; details: Homo sapiens, BT-549, read-out: Growth inhibition percentage (GI %)
K-562 = assay: as above; type: cell-based; details: Homo sapiens, K562, read-out: Growth inhibition percentage (GI %)
HOP-92 = assay: as above; type: cell-based; details: Homo sapiens, HOP-92, read-out: Growth inhibition percentage (GI %)
786-0 = assay: as above; type: cell-based; details: Homo sapiens, 786-0, read-out: Growth inhibition percentage (GI %)
HCT-15 = assay: as above; type: cell-based; details: Homo sapiens, HCT-15, read-out: Growth inhibition percentage (GI %)
UACC-257 = assay: as above; type: cell-based; details: Homo sapiens, UACC-257, read-out: Growth inhibition percentage (GI %)
SK-MEL-28 = assay: as above; type: cell-based; details: Homo sapiens, SK-MEL-28, read-out: Growth inhibition percentage (GI %)
IGROV1 = assay: as above; type: cell-based; details: Homo sapiens, IGROV-1, read-out: Growth inhibition percentage (GI %)
MDA-MB-231/ATCC = assay: as above; type: cell-based; details: Homo sapiens, MDA-MB-231, read-out: Growth inhibition percentage (GI %)
HT29 = assay: as above; type: cell-based, human; details: Homo sapiens, HT-29, read-out: Growth inhibition percentage (GI %)
SK-MEL-2 = assay: as above; type: cell-based; details: Homo sapiens, SK-MEL-2, read-out: Growth inhibition percentage (GI %)
DU-145 = assay: as above; type: cell-based; details: Homo sapiens, DU-145, read-out: Growth inhibition percentage (GI %)
UACC-62 = assay: as above; type: cell-based; details: Homo sapiens, UACC-62, read-out: Growth inhibition percentage (GI %)
ACHN = assay: as above; type: cell-based; details: Homo sapiens, ACHN, read-out: Growth inhibition percentage (GI %)
RXF 393 = assay: as above; type: cell-based; details: Homo sapiens, RXF 393, read-out: Growth inhibition percentage (GI %)
SNB-75 = assay: as above; type: cell-based; details: Homo sapiens, SNB-75, read-out: Growth inhibition percentage (GI %)
HCT-116 = assay: as above; type: cell-based; details: Homo sapiens, HCT-116, read-out: Growth inhibition percentage (GI %)
[1] = test system: 60 human subpanel cancer cell lines; assay: NCI 60 antitumor screening, mean over the panel (single dose); type: cell-based; details: mean over 60 cancer cell lines, single dose 10 μM
Protocol: Initially, the anticancer effects of target compounds have been assessed at a single (10 μM) dose. The obtained data have been reported as mean-graph of the percent growth (G%) of the treated cancer cells. Percentage growth inhibition (GI%) is calculated (100 − G%) and pronounced in Table 1. […] Target compounds in series (III) with manipulated linkers disclosed lower potency. Superiorly, eight s-triazine derivatives from the three series (6a, 6c, 6d, 7a, 7g, 7i, 7l, and 8b) have shown potent broad-spectrum anticancer activity against most the examined cell lines, whereas most of the remaining triazine derivatives, 20 derivatives, have exerted selective anti-proliferative actions towards certain cancer cell lines (Supplementary).
The antitumor screening was performed for 60 human cancer cell lines under the protocol of NCI (www.dtp.nci.nih.gov), the Drug Evaluation Branch, Bethesda, MD. All submitted compounds were nominated based on the degree of structural diversity and computer modelling techniques for evaluation of their anticancer activity. The screening process for antineoplastic activity passes through two successive levels, starting with the assessment of target compounds at a single dose of 10 μM against 60 cancer cell lines on nine types of human tumours. These experiments were done on a triplicate following. The output from the single‐dose screening was covered as a mean graph, and then, analysed by the COMPARE program. Finally, the compounds which disclosed subpanel cancer cell growth (G %) equal to or less than 10% in at least eight cancer cell lines get to pass the assessment against the 60 cell lines at five doses (0.01–100 μM). By using GraphPad Prism version 9.0 (Graphpad Software Inc., La Jolla, CA), GI50, TGI, as well as LC50 dose‐response parameters were computed and presented for each compound (Supplementary information)[55–57].

COLO 205 = assay: NCI 60 antitumor screening (single dose / five doses); type: cell-based; details: Homo sapiens, COLO 205, read-out: Growth inhibition percentage (GI %)
HL-60(TB) = assay: as above; type: cell-based; details: Homo sapiens, HL-60, read-out: Growth inhibition percentage (GI %)
T-47D = assay: as above; type: cell-based; details: Homo sapiens, T47D, read-out: Growth inhibition percentage (GI %)

C/C(=N\Nc1nc(N/N=C(\C)c2ccc([N+](=O)[O-])cc2)nc(N2CCOCC2)n1)c1ccc([N+](=O)[O-])cc1 [compound 8a, 2-(Morpholin-4-yl)-4,6-bis[(E)-2-[1–(4-nitrophenyl)ethylidene]hydrazin-1-yl]-1,3,5-triazine]
inhibition at 10 µM (SN 12C): -27.4%
inhibition at 10 µM (MDA-MB-435): 15%
inhibition at 10 µM (LOX IMVI): 61.1%
inhibition at 10 µM (MCF7): 25.9%
inhibition at 10 µM (SF-268): 3.96%
inhibition at 10 µM (A498): 33.9%
inhibition at 10 µM (SF-539): 84.5%
inhibition at 10 µM (BT-549): 32.7%
inhibition at 10 µM (K-562): 20.3%
inhibition at 10 µM (HOP-92): 35.9%
inhibition at 10 µM (786-0): 33.1%
inhibition at 10 µM (HCT-15): 33.9%
inhibition at 10 µM (UACC-257): 0.81%
inhibition at 10 µM (SK-MEL-28): 16.2%
inhibition at 10 µM (IGROV1): 6.22%
inhibition at 10 µM (MDA-MB-231/ATCC): 56.5%
inhibition at 10 µM (HT29): 19.4%
inhibition at 10 µM (SK-MEL-2): 3.61%
inhibition at 10 µM (DU-145): 19%
inhibition at 10 µM (UACC-62): 14.7%
inhibition at 10 µM (ACHN): 22.1%
inhibition at 10 µM (RXF 393): 26.3%
inhibition at 10 µM (SNB-75): 19.4%
inhibition at 10 µM (HCT-116): 29.4%
Mean GI % [1]: 23.27%
inhibition at 10 µM (COLO 205): 5.21%
inhibition at 10 µM (HL-60(TB)): 7.4%
inhibition at 10 µM (T-47D): 45.1%
